Results on 15 molecules are retold here after patent EP1134585B1, “Biosensor and method for the monitoring of herbicides” (CONSIGLIO NAZIONALE DELLE RICERCHE, priority 2000, dated 2001).

Test [1] concerns thylakoids from Amaranthus retroflexus, Wild-type. In words: Biosensor fluorescence response (Table D), wild-type biomediator. Format: biochemical. Conditions: herbicide concentration 10^-6 M.
The test system of test [2] is thylakoids from Amaranthus retroflexus, Mutant. The class given is biochemical. Conditions: herbicide concentration 10^-6 M.
The subject of a further test is Tyr222->Phe. Conditions: code T4; cited from earlier work.
For a further test, the target named is D1 protein Ser264->Ala (Chlamydomonas reinhardtii, UniProt P07753, S264A). Conditions: codes MZ1 MZ3 MZ5; cited from earlier work.
Another test addresses D1 protein Phe255->Tyr (Chlamydomonas reinhardtii, UniProt P07753, F255Y). Conditions: code Ar207+; cited from earlier work.
For the next test, the system named is Ile229->Met. Conditions: R. shaeroides; cited from earlier work.
Another test deals with Phe216→Val. Conditions: cited from earlier work.
The test system of another test is Phe216->Thr. Conditions: cited from earlier work.
In the next test the test system is I1e229->Cys. Conditions: cited from earlier work.
A further test relates to Ile229->Ser. Conditions: cited from earlier work.
In another test the test system is Gly228->Arg. Conditions: cited from earlier work.
The test system of the next test is I1e229→Met. Conditions: R. capsulatus; cited from earlier work.
For another test, the system named is PS II. Conditions: PS II treated with CdCl2, refrigeration at 5°C, flow 0,2-2,0 ml/m.
The test system of a further test is Gly228->Val. Conditions: cited from earlier work.
Another test deals with D1 protein Ala250->Asn (Chlamydomonas reinhardtii, UniProt P07753, A250N). Conditions: cited from earlier work.
In another test the test system is Phe216->Leu. Conditions: cited from earlier work.
A further test concerns PhC2,6―Pro. Conditions: cited from earlier work.
Test [3] has as its target D1 protein Ala250→Ser Phe255→IIe (Chlamydomonas reinhardtii, UniProt P07753, A250S/F255I). Conditions: cited from earlier work.
The target in a further test is D1 protein A1a250->Tyr (Chlamydomonas reinhardtii, UniProt P07753, A250Y). Conditions: cited from earlier work.
Another test has as its system Thr226->Met. Conditions: cited from earlier work.
The next test concerns the target D1 protein A1a250→IIe (Chlamydomonas reinhardtii, UniProt P07753, A250I). Conditions: cited from earlier work.
For the next test, the target named is D1 protein Ala250->Arg (Chlamydomonas reinhardtii, UniProt P07753, A250R). Conditions: cited from earlier work.
Another test addresses D1 protein Lysa)238->Val (Synechocystis sp., UniProt P16033, K238V). Conditions: Lysa)238->Val (Arg in other organisms); cited from earlier work.
Another test deals with Ile229->Thr. Conditions: cited from earlier work.
A further test concerns the target D1 protein A1a251->Cys (Chlamydomonas reinhardtii, UniProt P07753, A251C). Conditions: cited from earlier work.
The target in a further test is D1 protein Ala250->Asp (Chlamydomonas reinhardtii, UniProt P07753, A250D). Conditions: cited from earlier work.
Another test has as its system I1e229->Ala. Conditions: cited from earlier work.
For the next test, the system named is I1e228->Leu. Conditions: cited from earlier work.
The next test relates to monoclonal antibodies. Conditions: ELISA (Schneider et al. 1994); cited from earlier work.
A further test relates to Thr226->Ala. Conditions: cited from earlier work.
In a further test the test system is Gly192->Asp. Conditions: cited from earlier work.
The next test deals with Phe216→Ser ValM263→Phe. Conditions: double mutant Phe216→Ser ValM263→Phe, code T3; cited from earlier work.
The next test relates to -Phe216→Ser. Conditions: code T6; cited from earlier work.
The next test has as its system Ile229->Met~.Met. Conditions: code M29; cited from earlier work.
The subject of a further test is Arg217→His Ser223→Ala. Conditions: double mutant Arg217→His Ser223→Ala; cited from earlier work.
The test system of a further test is Ser223->Pro. Conditions: code SP223; cited from earlier work.
The subject of a further test is GluM34->Lys. Conditions: code M6; cited from earlier work.
The subject of another test is Tyr222->Gly. Conditions: code YG222; cited from earlier work.
Another test has as its system D1 protein Ser284->Gly. Conditions: Chenopodium album; cited from earlier work.
Test [4] has as its target D1 protein Phe211→Gly Met214→Gln (Chlamydomonas reinhardtii, UniProt P07753, F211G/M214Q). Conditions: cited from earlier work.

Excerpt for PS II: To further increase the stability of the biomediator the usefulness of a system for the refrigeration of the solution containing herbicide forwarded into the measuring cell experimentally was observed.

Turning to `CNc1nc(NC(C)C)nc(SC)n1` [Desmetryn], the “Area % inhibition Wild-type” value in [1] is recorded as 92%. In test [2], the “Area % inhibition Mutant” value turned out to be 10%. The “Resistance R/S” value in the test on Tyr222->Phe is “Desmetryn 50”.
For the molecule `CC(C)Cc1cc([N+](=O)[O-])cc([N+](=O)[O-])c1O` [i-Dinoseb], the “Supersensitivity R/S” value at D1 protein Ser264->Ala was “i-Dinoseb 0,7”.
For the molecule `CNC(=O)Nc1nc2ccccc2s1` [Benzthiazuron], on D1 protein Phe255->Tyr, the “Supersensitivity R/S” value is 0,3.
For `CCNc1nc(Cl)nc(NC(C)C)n1` [Atrazine], the “Resistance R/S” value in the test on Ile229->Met was “Atrazine >7”; with Phe216→Val, “Atrazine 1,8”; in the test on Phe216->Thr, “Atrazine 3,5”; with I1e229->Cys it was “Atrazine 2”; in the test on Ile229->Ser, “Atrazine 1,8”; with Gly228->Arg, “Atrazine 5,4”. The “Resistance R/S” value in the test on I1e229→Met is on record as “Atrazine 5,4”; in the test on Gly228->Val it was “Atrazine 4,2”; in the test on Phe216->Leu it was “Atrazine 4,2”; in the test on PhC2,6―Pro, “Atrazine 1,9”; in the test on Thr226->Met it was “Atrazine 3,1”; in the test with Ile229->Thr it was “Atrazine 3,7”. Moreover, the “Resistance R/S” value in the test with I1e229->Ala is reported as “Atrazine 1,8”; in the test with Tyr222->Phe, “Atrazine >600”; in the test with I1e228->Leu it was “Atrazine 3,5”; in the test on Thr226->Ala it was “Atrazin 3,1”; in the test with Gly192->Asp, “Atrazine 6”. In [1], the “Area % inhibition Wild-type” value is reported as 96%. In addition, the “sensitivity (concentration)” value in the test with PS II is “lower than nanomolar”. Further, the “Supersensitivity R/S” value on D1 protein Ala250->Asn was “Atrazine 0,3”; in [3], “Atrazine 0,5”; at D1 protein A1a250->Tyr, “Atrazine 0,4”; on D1 protein A1a250→IIe, “Atrazine 0,5”; on D1 protein Ala250->Arg, “Atrazin 0.25”; on D1 protein Lysa)238->Val it was “Atrazine 0,6”. The figures for the “Supersensitivity R/S” value on D1 protein A1a251->Cys and at D1 protein Ala250->Asp were “Atrazin 0,8” and “Atrazine 0,25”, respectively. For the same molecule, the “Area % inhibition Mutant” value in [2] came to 15%. Moreover, in the test with monoclonal antibodies, the sensitivity was 100 pM.
Consider `CSc1nc(NC(C)C)nc(NC(C)C)n1` [Prometryn], for which the “Resistance R/S” value in the test on Gly228->Arg is reported as “Prometryn 1,1”; with I1e229→Met, “Prometryn 2”; in the test with Gly228->Val it was “Prometryn 1,4”; in the test on Phe216->Leu, “Prometryn 1,4”; in the test on Thr226->Met, “Prometryn 1,1”; in the test on Ile229->Thr, “Prometryn 1,4”. Also, in the test with Thr226->Ala, the “Resistance R/S” value is on record as “Prometryn 1,4”.
As to `c1cnc2c(c1)ccc1cccnc12` [o-Phenanthroline], the “Resistance R/S” value is “o-Phenathroline 67” with Phe216→Ser ValM263→Phe; “o-Phenanthroline 1,3” in the test with Ile229->Ser; “o-Phenanthroline 333” with -Phe216→Ser; “o-Phenanthro me 11” in the test with Ile229->Met~.Met; “o-Phenanthroline 5” in the test with Arg217→His Ser223→Ala; “o-Phenanthroline 10” with Tyr222->Phe. Besides, the “Resistance R/S” value in the test with Ser223->Pro was “o-Phenanthroline 6,25”; in the test on GluM34->Lys, “o-Phenanthroline >25”; with Tyr222->Gly, “o-Phenanthroline 26”; in the test with Gly192->Asp it was “o-Phenanthroline 3”. The “Supersensitivity R/S” value with Thr226->Ala is “line 0,03”.
Take `CNC(=O)N(C)c1nc2ccccc2s1` [Metabenzthiazuron]: the “Supersensitivity R/S” value at D1 protein Phe255->Tyr was “zuron 0,3”.
In the case of `CCNc1nc(Cl)nc(NCC)n1` [Simazine], the “Area % inhibition Wild-type” value in test [1] is reported as 95%. For the same molecule, the “sensitivity (concentration)” value in the test on PS II was “lower than nanomolar”. Further, in test [2], the “Area % inhibition Mutant” value was determined as 14%.
Take `CCC(C)n1c(=O)[nH]c(C)c(Br)c1=O` (stereo not drawn) [Bromacil]: at D1 protein Phe255->Tyr, the “Supersensitivity R/S” value is “Bromacil 0,9”.
`COC(=O)Nc1cccc(OC(=O)Nc2cccc(C)c2)c1` [Phenmedipham]: the “Supersensitivity R/S” value on D1 protein A1a251->Cys is given as 0,8.
As for `CCNc1nc(NC(C)C)nc(SC)n1` [Ametryn], in [1], the “Area % inhibition Wild-type” value stood at 99%. Further, the “Resistance R/S” value in the test with Gly228->Arg is on record as “Ametryn 4”; with I1e229→Met it was “Ametryn 5,3”; in the test on Gly228->Val it was “Ametryn 5,3”; in the test on Phe216->Leu it was “Ametryn 3,1”; in the test on PhC2,6―Pro, “Ametryn 1,9”; in the test on Thr226->Met it was “Ametryn 2,5”. Also, the “Resistance R/S” value is on record as “Ametryn 1,9” in the test on Ile229->Thr, “Ametryn 330” in the test on Tyr222->Phe, “Ametryn 2,5” in the test on I1e228->Leu and “Ametryn 4” in the test with Thr226->Ala. In addition, in [2], the “Area % inhibition Mutant” value is on record as 21%.
`CC(C)N1C(=O)c2ccccc2NS1(=O)=O` [Bentazon]: the “Supersensitivity R/S” value in the test with D1 protein Ser284->Gly is “Bentazon 0,5”.
Take `Cc1nnc(-c2ccccc2)c(=O)n1N` [Metamitron]: the “Supersensitivity R/S” value in test [4] was 0,4; on D1 protein Phe255->Tyr, “Metamitron 0,3”.
Consider `CCNc1nc(NC(C)(C)C)nc(SC)n1` [Terbutryn], for which the “Resistance R/S” value is “Terbutryn 166” with Phe216→Ser ValM263→Phe; “Terbutryn 1,3” in the test with Gly228->Arg; “Terbutryn 1,9” in the test with I1e229→Met; “Terbutryn 1,5” in the test with Gly228->Val; “Terbutryn >2800” in the test with -Phe216→Ser; “Terbutryn 120” with Ile229->Met~.Met. In addition, the “Resistance R/S” value is on record as “Terbutryn 1,7” with Thr226->Met; “Terbutryn 222” in the test with Arg217→His Ser223→Ala; “Terbutryn 1,7” in the test with Thr226->Ala; “Terbutryn >3000” in the test with Ser223->Pro; “Terbutryn > 125” in the test on GluM34->Lys; “Terbutryn >3000” in the test on Tyr222->Gly. Besides, in the test with Gly192->Asp, the “Resistance R/S” value was “Terbutryn 300”. In addition, the “Supersensitivity R/S” value in the test with Ile229->Ser was “Terbutryn 0,4”; in test [3], 0,9; on D1 protein A1a250→IIe it was “Terbutryn 0,5”; on D1 protein Ala250->Asp, “Terbutryn 0,4”; in the test with Thr226->Ala, “Terbutryn 0,6(?)”.
In the case of `COc1nc(NC(C)C)nc(NC(C)C)n1` [Prometon], the “Resistance R/S” value with Gly228->Arg is recorded as “Prometon 1,2”; with I1e229→Met, “Prometron 1,2”; in the test on Gly228->Val, “Prometon 1,3”; in the test with Phe216->Leu, “Prometon 1,8”; in the test with PhC2,6―Pro, “Prometon 1,8”; in the test with Ile229->Thr it was “Prometon 1,2”. In addition, the “Resistance R/S” value in the test on I1e229->Ala was “Prometron 1,2”; with Thr226->Ala, “Prometon 1,8”.
